In patent publication US20160271263A1 (Novo Nordisk A/S, priority 2010, published 2016):
pEC50: −log10 of the molar value. Numbered stars: 1 amine (or outer) side, 2 acyl side, 3 side chain; on linkers, the order of the positions; unused ones are H or OH. Square brackets hold non-standard residues; d marks the D form. Side chains are listed from the residue outwards. Peptide text beside a SMILES is read from it. * marks the point of attachment. C18 diacid = O=C(O)CCCCCCCCCCCCCCCCC(=O)*; γGlu = O=C(O)[C@H](CCC(=O)[*:2])N[*:1]; AEEA = NCCOCCOCC(=O)O

Biological target: glucagon receptor (Homo sapiens, UniProt P47871)
Sequence (P47871 26-477): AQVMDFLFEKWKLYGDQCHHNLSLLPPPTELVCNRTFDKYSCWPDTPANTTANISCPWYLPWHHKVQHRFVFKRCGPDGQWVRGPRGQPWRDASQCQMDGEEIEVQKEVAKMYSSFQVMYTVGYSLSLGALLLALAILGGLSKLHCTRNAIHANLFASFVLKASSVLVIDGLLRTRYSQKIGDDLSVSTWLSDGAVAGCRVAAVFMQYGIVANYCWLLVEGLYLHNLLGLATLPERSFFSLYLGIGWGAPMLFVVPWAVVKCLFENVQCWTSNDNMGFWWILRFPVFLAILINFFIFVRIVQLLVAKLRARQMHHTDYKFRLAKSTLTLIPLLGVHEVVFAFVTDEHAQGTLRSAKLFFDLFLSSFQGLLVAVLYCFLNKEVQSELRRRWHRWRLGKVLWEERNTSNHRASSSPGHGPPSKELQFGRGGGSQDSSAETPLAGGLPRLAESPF
Assay: cell-based

pEC50	Structure (SMILES)
10.24	CC(C)C[C@H](NC(=O)[C@H](Cc1ccc(O)cc1)NC(=O)[C@H](CCCCN)NC(=O)[C@H](CO)NC(=O)[C@H](Cc1ccc(O)cc1)NC(=O)[C@H](CC(=O)O)NC(=O)[C@H](CO)NC(=O)[C@@H](NC(=O)[C@H](Cc1ccccc1)NC(=O)[C@@H](NC(=O)CNC(=O)[C@H](CCC(N)=O)NC(=O)[C@H](CO)NC(=O)[C@@H](N)Cc1c[nH]cn1)[C@@H](C)O)[C@@H](C)O)C(=O)N[C@@H](CC(=O)O)C(=O)N[C@@H](CO)C(=O)N[C@@H](CCCNC(=N)N)C(=O)N[C@@H](CCCNC(=N)N)C(=O)N[C@@H](C)C(=O)N[C@@H](CCCCNC(=O)CC[C@H](NC(=O)CC[C@H](NC(=O)COCCOCCNC(=O)COCCOCCNC(=O)CC[C@H](NC(=O)CCCCCCCCCCCCCCCCC(=O)O)C(=O)O)C(=O)O)C(=O)O)C(=O)N[C@@H](CC(=O)O)C(=O)N[C@@H](Cc1ccccc1)C(=O)N[C@H](C(=O)N[C@@H](CCC(N)=O)C(=O)N[C@@H](Cc1c[nH]c2ccccc12)C(=O)N[C@@H](CC(C)C)C(=O)N[C@@H](CC(C)C)C(=O)N[C@@H](CC(N)=O)C(=O)N[C@H](C(=O)O)[C@@H](C)O)C(C)C [Example 98, N^ε20-[(4S)-4-carboxy-4-[[(4S)-4-carboxy-4-[[2-[2-[2-[[2-[2-[2-[[(4S)-4-carboxy-4-(17-carboxyheptadecanoylamino)butanoyl]amino]ethoxy]ethoxy]acetyl]amino]ethoxy]ethoxy]acetyl]amino]butanoyl]amino]butanoyl]-[Lys^20,Leu^27]-Glucagon]
10.66	CC(C)C[C@H](NC(=O)[C@H](Cc1ccc(O)cc1)NC(=O)[C@H](CCCCN)NC(=O)[C@H](CO)NC(=O)[C@H](Cc1ccc(O)cc1)NC(=O)[C@H](CC(=O)O)NC(=O)[C@H](CO)NC(=O)[C@@H](NC(=O)[C@H](Cc1ccccc1)NC(=O)[C@@H](NC(=O)CNC(=O)[C@H](CCC(N)=O)NC(=O)[C@H](CO)NC(=O)[C@@H](N)Cc1c[nH]cn1)[C@@H](C)O)[C@@H](C)O)C(=O)N[C@@H](CC(=O)O)C(=O)N[C@@H](CO)C(=O)N[C@@H](CCCNC(=N)N)C(=O)N[C@@H](CCCNC(=N)N)C(=O)N[C@@H](C)C(=O)N[C@@H](CCC(N)=O)C(=O)N[C@@H](CC(=O)O)C(=O)N[C@@H](Cc1ccccc1)C(=O)N[C@H](C(=O)N[C@@H](CCC(N)=O)C(=O)N[C@@H](Cc1c[nH]c2ccccc12)C(=O)N[C@@H](CC(C)C)C(=O)N[C@@H](CC(C)C)C(=O)N[C@@H](CCCCNC(=O)COCCOCCNC(=O)COCCOCCNC(=O)CC[C@H](NC(=O)CCCCCCCCCCCCCCCCC(=O)O)C(=O)O)C(=O)N[C@H](C(=O)O)[C@@H](C)O)C(C)C [Example 8]
10.03	CC(C)C[C@H](NC(=O)[C@H](Cc1ccc(O)cc1)NC(=O)[C@H](CCCCN)NC(=O)[C@H](CO)NC(=O)[C@H](Cc1ccc(O)cc1)NC(=O)[C@H](CC(=O)O)NC(=O)[C@H](CO)NC(=O)[C@@H](NC(=O)[C@H](Cc1ccccc1)NC(=O)[C@@H](NC(=O)CNC(=O)[C@H](CCC(N)=O)NC(=O)[C@H](CO)NC(=O)[C@@H](N)Cc1c[nH]cn1)[C@@H](C)O)[C@@H](C)O)C(=O)N[C@@H](CC(=O)O)C(=O)N[C@@H](CO)C(=O)N[C@@H](CCCNC(=N)N)C(=O)N[C@@H](CCCNC(=N)N)C(=O)N[C@@H](C)C(=O)N[C@@H](CCC(N)=O)C(=O)N[C@@H](CC(=O)O)C(=O)N[C@@H](Cc1ccccc1)C(=O)N[C@H](C(=O)N[C@@H](CCC(N)=O)C(=O)N[C@@H](Cc1c[nH]c2ccccc12)C(=O)N[C@@H](CC(C)C)C(=O)N[C@@H](CC(C)C)C(=O)N[C@@H](CCCCNC(=O)CC[C@H](NC(=O)COCCOCCNC(=O)COCCOCCNC(=O)CC[C@H](NC(=O)CC[C@H](NC(=O)CCCCCCCCCCCCCCCCC(=O)O)C(=O)O)C(=O)O)C(=O)O)C(=O)N[C@H](C(=O)O)[C@@H](C)O)C(C)C [Example 66, N^ε28-[(4S)-4-carboxy-4-[[2-[2-[2-[[2-[2-[2-[[(4S)-4-carboxy-4-[[(4S)-4-carboxy-4-(17-carboxyheptadecanoylamino)butanoyl]amino]butanoyl]amino]ethoxy]ethoxy]acetyl]amino]ethoxy]ethoxy]acetyl]amino]butanoyl]-[Leu^27,Lys^28]-Glucagon]
10.70	CC(C)C[C@H](NC(=O)[C@H](Cc1ccc(O)cc1)NC(=O)[C@H](CCCCN)NC(=O)[C@H](CO)NC(=O)[C@H](Cc1ccc(O)cc1)NC(=O)[C@H](CC(=O)O)NC(=O)[C@H](CO)NC(=O)[C@@H](NC(=O)[C@H](Cc1ccccc1)NC(=O)[C@@H](NC(=O)CNC(=O)[C@H](CCC(N)=O)NC(=O)[C@H](CO)NC(=O)[C@@H](N)Cc1c[nH]cn1)[C@@H](C)O)[C@@H](C)O)C(=O)N[C@@H](CC(=O)O)C(=O)N[C@@H](CO)C(=O)N[C@@H](CCCNC(=N)N)C(=O)N[C@@H](CCCNC(=N)N)C(=O)N[C@@H](C)C(=O)N[C@@H](CCC(N)=O)C(=O)N[C@@H](CC(=O)O)C(=O)N[C@@H](Cc1ccccc1)C(=O)N[C@H](C(=O)N[C@@H](CCCCNC(=O)COCCOCCNC(=O)COCCOCCNC(=O)CC[C@H](NC(=O)CCCCCCCCCCCCCCCCC(=O)O)C(=O)O)C(=O)N[C@@H](Cc1c[nH]c2ccccc12)C(=O)N[C@@H](CC(C)C)C(=O)N[C@@H](CC(C)C)C(=O)N[C@@H](CO)C(=O)N[C@H](C(=O)O)[C@@H](C)O)C(C)C [Example 14]
9.86	CC(C)C[C@H](NC(=O)[C@H](Cc1ccc(O)cc1)NC(=O)[C@H](CCCCN)NC(=O)[C@H](CO)NC(=O)[C@H](Cc1ccc(O)cc1)NC(=O)[C@H](CC(=O)O)NC(=O)[C@H](CO)NC(=O)[C@@H](NC(=O)[C@H](Cc1ccccc1)NC(=O)[C@@H](NC(=O)CNC(=O)[C@H](CCC(N)=O)NC(=O)[C@@H](CO)NC(=O)[C@@H](N)Cc1c[nH]cn1)[C@@H](C)O)[C@@H](C)O)C(=O)N[C@@H](CC(=O)O)C(=O)N[C@@H](CCC(=O)O)C(=O)N[C@@H](CCC(N)=O)C(=O)N[C@@H](C)C(=O)N[C@@H](C)C(=O)N[C@@H](CCCNC(=N)N)C(=O)N[C@@H](CC(=O)O)C(=O)N[C@@H](Cc1ccccc1)C(=O)N[C@H](C(=O)N[C@@H](CCCCNC(=O)COCCOCCNC(=O)COCCOCCNC(=O)CC[C@H](NC(=O)CCCCCCCCCCCCCCCCC(=O)O)C(=O)O)C(=O)N[C@@H](Cc1c[nH]c2ccccc12)C(=O)N[C@@H](CC(C)C)C(=O)N[C@@H](CC(C)C)C(=O)N[C@@H](CC(N)=O)C(=O)N[C@H](C(N)=O)[C@@H](C)O)C(C)C [Example 30, N^ε24-([2-[2-[2-[[2-[2-[2-[[(4S)-5-hydroxy-4-[(18-hydroxy-18-oxooctadecanoyl)amino]-5-oxopentanoyl]amino]ethoxy]ethoxy]acetyl]amino]ethoxy]ethoxy]acetyl]) [D-Ser^2,Glu^16,Gln^17,Ala^18,Arg^20,Lys^24,Leu^27] Glucagon peptide amide] (H-H[dS]QGTFTSDYSKYLDEQAARDFVK([AEEA-AEEA-γGlu-C18 diacid])WLLNT-NH2; N-terminus assumed)
